Experimental data published in patent publication US6326526A, “Melatonin receptor-deficient mice and uses thereof” (Bristol-Myers Squibb Company, priority 2000, dated 2001).

Legend:
[1] = tested on: SCN slices from wild-type mice (single-unit electrical activity rhythm); assay: SCN single unit recordings, phase shift of electrical activity rhythm, wild-type mice; format: cell-based, mouse
Description: (§1) Mice were housed in LD 12:12 for three weeks prior to experimentation. After adaptation, mice were killed by decapitation during the light phase of the LD cycle. Hypothalamic slices (500 μm) were prepared using a tissue chopper and incubated at 37° C., as previously described (Liu, C., and Gillette, M. U., J. Neurosci. 16:744-751, 1996). For most experiments, perfusion was discontinued during the 1-hour treatment with melatonin or vehicle (0.0001% ethanol in perfusion medium). For the pertussis toxin experiment, perfusion was discontinued for 6 hours, ending after the vehicle or melatonin treatment. At the end of treatment, the medium in the chamber was replaced, and perfusion was resumed with melatonin-free medium. Single units from the SCN were recorded the following day with glass microelectrodes (Liu, C., and Gillette, M. U., J. Neurosci. 16:744-751, 1996). Signals were amplified, filtered to a band width of 0.3-3 kHz, and stored (MacADIO II, GW Instruments, Somerville, Mass.). Voltage pulses exceeding preset recording threshold were detected on-line by custom software. Off-line analysis assigned a cluster of spikes of similar amplitude and width to each unit recorded (Meister, M., et al., J. Neurosci. Methods 51:95-101, 1994). Firing rate data were analyzed as previously described to determine the time-of-peak in the activity rhythm (Liu, C., and Gillette, M. U., J. Neurosci. 16:744-751, 1996).

[2] = tested on: SCN slices from wild-type mice (multiunit activity); assay: SCN multiunit recordings, melatonin-induced inhibition of neuronal firing, wild-type mice; format: cell-based, mouse
Description: (§2) Adult male wild-type and homozygous mutant mice were housed in LD 12:12 for a minimum of three weeks prior to experimentation. After the adaptation period, the mice were killed 2.0 to 4.5 hours after lights-on, and brains were rapidly dissected and placed into ACSF medium containing 116.3 mM NaCl, 5,4 mM KCl, 1.0 mM NaH2 PO4, 26.2 mM NaHCO3, 1.8 mM CaCl2, 0.8 mM MgSO4, 24.6 mM dextrose, and 5 mg/l Gentamicin sulphate, pH 7.5. A block of tissue containing the hypothalamus was dissected from the brain and transferred to a manual tissue chopper where coronal hypothalamic brain slices (400 μm in thickness) containing the SCN were prepared. Slices were placed in a Haas-type brain slice chamber (Haas H. L., et al., J. Neurosci. Methods 1:323-325, 1979; Medical Systems Corp.) and gauze strips placed over the slices in the vicinity of the SCN to raise the fluid level above the slices. They were continually superfused with ACSF medium warmed to 37° C. To record multiple-unit SCN electrical activity, a 76 μm-diameter, teflon-coated platinum-iridium wire electrode was lowered into the brain slice in the SCN (Bouskila, Y., and Dudek, F. E., Proc. Natl. Acad. Sci. USA 90:3207-3210, 1993). This electrical activity was amplified, and the number of electrical events was counted with a window discriminator (Fintronics Inc., Orange, Conn.). Data were collected and analyzed by computer, using Brainwave™ (Data Waver Technologies, Broomfield, Colo.) or Spike 2™ (Cambridge Electronic Design, Cambridge, Mass.) software. The average number of electrical events in successive 1-minute intervals was determined and plotted against the circadian time of recording. Slices were excluded if their viability was compromised on day 2 of recording.
Melatonin was prepared as a 100 μM stock solution in 100% ethanol, which was serially diluted with ACSF medium to yield four melatonin concentrations between 0.1 and 100 nM. A stock solution of vehicle (100% ethanol) was serially diluted with ACSF medium to yield the corresponding vehicle for each melatonin concentration. Melatonin or vehicle was applied by gravity flow in the bath for 30 minutes at each concentration before switching to the next solution. […] In the mouse experiments at circadian time 4.5-6.5 where only the single highest vehicle concentration was used as a comparator, the vehicle was applied for 30 minutes prior to the application of melatonin. A programmable automatic solution switching system (AutoMate Scientific Inc., Oakland, Calif.) was employed to time solution applications.
(§3) The maximum percent inhibition of SCN neuronal firing during each 30 minutes application of melatonin or vehicle was calculated with respect to the average multiunit firing rate during the 5 minute period prior to the first application of a series, and plotted.

[3] = tested on: SCN slices from Mel1a receptor-deficient (homozygous mutant) mice (multiunit activity); settings: 0.1 to 100 nM, CT 9.5-11.5 and CT 4.5-6.5, relative to vehicle
Description: as §2, with “Slices were placed in a Haas-type brain slice chamber (Haas H. L., et al., J. Neurosci. Methods 1:323-325, 1979; Medical Systems Corp.) and gauze strips placed over the slices in the vicinity of the SCN to raise the fluid level above the slices. They were continually superfused with ACSF medium warmed to 37° C. To record multiple-unit SCN electrical activity, a 76 μm-diameter, teflon-coated platinum-iridium wire electrode was lowered into the brain slice in the SCN (Bouskila, Y., and Dudek, F. E., Proc. Natl. Acad. Sci. USA 90:3207-3210, 1993).” left out, “Slices were excluded if their viability was compromised on day 2 of recording.” left out
as §3

[4] = tested on: SCN slices from Mel1a receptor-deficient (homozygous mutant) mice (single-unit electrical activity rhythm); assay: SCN single unit recordings, phase shift of electrical activity rhythm, Mel1a receptor-deficient mice; format: cell-based, mouse
Description: as §1

[5] = tested on: rat SCN single-unit activity rhythm; settings: rats; read-out: EC50 of phase-shifting effect on the single-unit activity rhythm; cited from earlier work

Compound: COc1ccc2[nH]cc(CCNC(C)=O)c2c1 [melatonin]
- Phase advance in circadian phase ([1]; application at CT 9.5-10.5, preliminary studies of wildtype mice): approximately 4 hour
- Phase shift in the electrical activity rhythm ([1]; application from CT 5.5-6.5): did not elicit significant phase shifts
- CT of activity peak ([1]; application from CT 5.5-6.5, n=3): 6.8 ± 0.3 h
- inhibition at 0.001 µM ([2]; Mus musculus, 1 nM, at night CT 18, wild-type C57BL/6 mice, n=8): 33.9 ± 3.9%
- EC50 ([2]; Mus musculus, 0.1-100 nM, 30 min each, CT 4.5-6.5, day 2 in culture): 0.412 nM
- Percent inhibition of SCN firing rate ([2]; increasing melatonin 0.1-100 nM, CT 4.5-6.5 of day 2 (FIG. 4A)): over 30%
- Percent inhibition of SCN firing rate ([2]; melatonin 0.1-100 nM, CT 9.5-11.5 of day 1, plateau (FIG. 4B)): about 13%
- Inhibition of SCN multiunit activity [3]: unable to significantly inhibit SCN multiunit activity
- Circadian time of the activity peak [4]: 6.6 ± 0.1 h
- Phase of the firing rhythm peak [4]: not shifted
- Phase shift (phase advance) in the electrical activity rhythm peak ([4]; 1 nM, CT 9.5-10.5): approximately 4 hour
- Phase advance in circadian phase ([4]; 1 nM, CT 9.5-10.5, after 5-hour static bath of normal medium, n=3): 3.2 ± 0.1 h
- EC50 [5]: < 0.1 nM
